Target: T1, human granulocyte elastase (Homo sapiens, UniProt P08246)
T1 construct: Crude extract of human polymorphonuclear leukocytes (PMN) containing elastase activity; endogenous in cells; host or cells: human polymorphonuclear leukocytes (PMN), crude extract
T1 sequence (P08246 30-247 limits assumed): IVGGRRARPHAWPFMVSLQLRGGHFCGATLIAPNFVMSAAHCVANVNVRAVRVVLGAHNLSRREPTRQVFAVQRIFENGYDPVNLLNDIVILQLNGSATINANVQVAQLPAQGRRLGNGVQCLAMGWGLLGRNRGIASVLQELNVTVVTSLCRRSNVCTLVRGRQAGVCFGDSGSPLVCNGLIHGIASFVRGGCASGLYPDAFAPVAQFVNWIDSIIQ
Experiment: Inhibition of human polymorphonuclear leukocyte elastase via hydrolysis of Boc-AAPAN or Boc-AAPVN
Type: biochemical
Settings: crude extract of human PMN; 0.05M TES buffer pH 7.5; substrate 0.2 mM Boc-AAPAN or Boc-AAPVN; read-out: kobs /I, second order rate constant for inactivation of the enzyme
Method: Enzyme Assays for the Inhibition of Human Polymorphonuclear Leukocyte Elastase Via Hydrolysis of N-t-Boc-alanyl-alanyl-prolylalanine-p-nitroanilide (Boc-AAPAN) or N-t-Boc-alanyl-prolylvaline-p-nitroanilide (Boc-AAPVN) Reagent
0.05M TES (N-tris[hydroxymethyl]methyl-2-amino-ethanesulfonic acid) Buffer, pH 7.5.
0.2 mM Boc-AAPAN or Boc-AAPVN.
To prepare substrate, the solid was first dissolved in 10.0 ml DMSO. Buffer at pH 7.5 was then added to a final volume of 100 ml.
Crude extract of human polymorphonuclear leukocytes (PMN) containing elastase activity.
Inhibitors (azetidinones) to be tested dissolved in DMSO just before use.
To 1.0 ml of 0.2 mM Boc-AAPAN in a cuvette, 0.01-0.1 ml of DMSO with or without inhibitor was added. After mixing, a measurement was taken at 410 mμ to detect any spontaneous hydrolysis due to presence of test compound. 0.05 Milliliters of PMN extract was then added and the ΔOD/min at 410 mμ was measured and recorded. Beckman model 35 spectrophotometer was used.
Results are also expressed as Ki, the micromolar concentration of the inhibitor (μM) giving 50% of the control enzyme activity; or as ^k obs/I which is the second order rate constant in per mole per second for inactivation of the enzyme.
The elastase activity in the crude PMN extract may vary from one preparation to another. […]

| SMILES | kinact/KI [M⁻¹ s⁻¹] |
| --- | --- |
| CCCC(NC(=O)N1C(=O)C(CC)(CC)C1Oc1ccc(CP(=O)(O)O)cc1)c1ccc(C)cc1 [Example 2, (4S)-3,3-Diethyl-1-[(R)-α-n-propyl-(4-methyl)-benzylaminocarbonyl)]-4-[4-(dihydroxyphosphinylmethyl)phenoxy]-azetidin-2-one] | 220000 |
| CCCC(NC(=O)N1C(=O)C(CC)(CC)C1Oc1ccc(CP(=O)(OCC)OCC)cc1)c1ccc(C)cc1 [Example 1, (4S)-3,3-Diethyl-1-[(R)-α-n-propyl(4-methyl)-benzylaminocarbonyl)]-4-[4-(diethoxyphosphinylmethyl)-phenoxy]-azetidin-2-one] | 1.2e+06 |
